Assay results taken from publication doi:10.1101/2024.08.19.608619, “Discovery of potent SARS-CoV-2 nsp3 macrodomain inhibitors uncovers lack of translation to cellular antiviral response” (bioRxiv, 2024).
“And” between values parts separate entries of the source, which are not always exact repeats. Identical values can stand only once. Like-named read-outs stand apart in the source and are kept apart here.

Experiments:
in vitro = conditions: human; for CC50 at 24 h: HeLa-ACE2 cells (uninfected)
SARS-CoV-2 nsp3-mac1 = SARS-CoV-2 nsp3-mac1 (Severe acute respiratory syndrome coronavirus 2, UniProt P0DTD1); experiment: biochemical
MDR1 = experiment: Permeability Papp (AB) MDR1/MDCKII; conditions: dog; for Papp A→B: A to B; for Papp B→A: B to A
iPSC pneumocytes = iPSC pneumocytes cytotoxicity; format: cell-based; conditions: for perc_max_measured: highest measured response of the dose series; for perc_min_measured: lowest measured response of the dose series
Text: (§1) Supplement media-1.zip/Cytotoxicity.csv, table | column: cc10; cc50; perc_min_measured; perc_max_measured

SARS-CoV-2 = experiment: Antiviral effect in iPSC-derived pneumocyte system; format: cell-based; conditions: iPSC pneumocytes SARS-CoV-2 antiviral effect; for perc_max_measured: maximum measured response of dose series; for perc_min_measured: minimum measured response of dose series
HeLa-ACE2 cells = conditions: read-out: 50.0, 1440 min
5-HT transporter (h) [1] = target: T1, 5-HT transporter (h) (Homo sapiens, UniProt P31645); experiment: In vitro CEREP profiling, 5-HT transporter (h) (antagonist radioligand); conditions: test compound concentration 10 uM
T1 construct: purchased Eurofins Cerep (SafetyScreen44), recognised from the panel format
T1 sequence (P31645 whole entry): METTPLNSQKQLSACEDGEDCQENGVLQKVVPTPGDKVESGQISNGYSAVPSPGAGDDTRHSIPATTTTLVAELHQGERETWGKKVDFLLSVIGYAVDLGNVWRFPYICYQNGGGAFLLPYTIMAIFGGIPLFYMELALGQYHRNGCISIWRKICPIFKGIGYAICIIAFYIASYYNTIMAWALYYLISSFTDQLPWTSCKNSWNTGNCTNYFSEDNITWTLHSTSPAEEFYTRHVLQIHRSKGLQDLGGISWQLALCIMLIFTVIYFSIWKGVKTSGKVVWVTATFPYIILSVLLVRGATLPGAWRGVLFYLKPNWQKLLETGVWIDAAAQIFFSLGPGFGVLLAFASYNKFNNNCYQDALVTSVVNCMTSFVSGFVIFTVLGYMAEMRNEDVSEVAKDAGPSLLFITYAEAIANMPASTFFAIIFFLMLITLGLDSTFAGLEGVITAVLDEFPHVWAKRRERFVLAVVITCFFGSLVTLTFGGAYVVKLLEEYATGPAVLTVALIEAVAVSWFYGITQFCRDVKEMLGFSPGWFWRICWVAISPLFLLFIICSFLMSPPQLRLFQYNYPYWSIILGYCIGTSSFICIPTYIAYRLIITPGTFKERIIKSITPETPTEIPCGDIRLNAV
Text: (§2) Supplement media-1.zip/Safety_Panel_Profile.csv, table | column: perc_inhibition

5-HT1A (h) = target: T2, 5-HT1A (h) (Homo sapiens, UniProt P08908); experiment: In vitro CEREP profiling, 5-HT1A (h) (agonist radioligand); format: binding; conditions: test compound concentration 10 uM; for inhibition at 10 µM: read-out: perc_inhibition (% inhibition of the binding of a ligand specific for each target)
T2 construct: purchased Eurofins Cerep (SafetyScreen44), recognised from the panel format
T2 sequence (P08908 1-422): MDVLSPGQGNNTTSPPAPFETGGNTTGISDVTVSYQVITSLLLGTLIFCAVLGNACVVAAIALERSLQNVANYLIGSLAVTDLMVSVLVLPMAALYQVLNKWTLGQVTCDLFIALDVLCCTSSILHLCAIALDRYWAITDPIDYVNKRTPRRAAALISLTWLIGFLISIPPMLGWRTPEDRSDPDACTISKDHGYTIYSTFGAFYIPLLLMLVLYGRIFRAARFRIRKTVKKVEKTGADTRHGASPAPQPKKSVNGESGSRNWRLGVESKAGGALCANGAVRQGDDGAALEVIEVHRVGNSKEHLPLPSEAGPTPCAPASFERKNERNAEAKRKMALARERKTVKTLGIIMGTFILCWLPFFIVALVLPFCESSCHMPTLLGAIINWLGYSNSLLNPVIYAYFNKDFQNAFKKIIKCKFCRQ
Text: as §2

M1 (h) = target: T3, M1 (h) (Homo sapiens, UniProt P11229); experiment: In vitro CEREP profiling, M1 (h) (antagonist radioligand); format: binding; conditions: test compound concentration 10 uM; for inhibition at 10 µM: read-out: perc_inhibition (% inhibition of the binding of a ligand specific for each target)
T3 construct: purchased Eurofins Cerep (SafetyScreen44), recognised from the panel format
T3 sequence (P11229 1-460): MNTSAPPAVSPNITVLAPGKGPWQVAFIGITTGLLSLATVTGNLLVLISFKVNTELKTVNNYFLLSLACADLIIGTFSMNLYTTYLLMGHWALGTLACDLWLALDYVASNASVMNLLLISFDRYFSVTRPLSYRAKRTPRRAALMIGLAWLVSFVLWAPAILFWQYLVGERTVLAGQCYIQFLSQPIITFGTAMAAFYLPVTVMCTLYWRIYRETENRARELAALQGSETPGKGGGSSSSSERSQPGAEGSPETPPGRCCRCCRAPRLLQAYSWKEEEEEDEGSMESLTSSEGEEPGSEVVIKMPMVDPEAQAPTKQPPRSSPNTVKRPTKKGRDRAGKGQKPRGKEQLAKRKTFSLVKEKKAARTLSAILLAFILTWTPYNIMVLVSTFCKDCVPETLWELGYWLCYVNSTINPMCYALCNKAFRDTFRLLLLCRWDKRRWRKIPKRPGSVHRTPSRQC
Text: as §2

hERG = hERG (Homo sapiens, UniProt Q12809); experiment: In vitro CEREP profiling, Potassium Channel hERG (human)- [3H] Dofetilide; format: binding; parameters: purchased Eurofins Cerep (SafetyScreen44), recognised from the panel format; conditions: hERG potassium channel binding assay, probe [3H] Dofetilide, test compound concentration 10 uM, read-out: perc_inhibition, % inhibition of the binding of a ligand specific for each target
hERG, sequence (Q12809 whole entry): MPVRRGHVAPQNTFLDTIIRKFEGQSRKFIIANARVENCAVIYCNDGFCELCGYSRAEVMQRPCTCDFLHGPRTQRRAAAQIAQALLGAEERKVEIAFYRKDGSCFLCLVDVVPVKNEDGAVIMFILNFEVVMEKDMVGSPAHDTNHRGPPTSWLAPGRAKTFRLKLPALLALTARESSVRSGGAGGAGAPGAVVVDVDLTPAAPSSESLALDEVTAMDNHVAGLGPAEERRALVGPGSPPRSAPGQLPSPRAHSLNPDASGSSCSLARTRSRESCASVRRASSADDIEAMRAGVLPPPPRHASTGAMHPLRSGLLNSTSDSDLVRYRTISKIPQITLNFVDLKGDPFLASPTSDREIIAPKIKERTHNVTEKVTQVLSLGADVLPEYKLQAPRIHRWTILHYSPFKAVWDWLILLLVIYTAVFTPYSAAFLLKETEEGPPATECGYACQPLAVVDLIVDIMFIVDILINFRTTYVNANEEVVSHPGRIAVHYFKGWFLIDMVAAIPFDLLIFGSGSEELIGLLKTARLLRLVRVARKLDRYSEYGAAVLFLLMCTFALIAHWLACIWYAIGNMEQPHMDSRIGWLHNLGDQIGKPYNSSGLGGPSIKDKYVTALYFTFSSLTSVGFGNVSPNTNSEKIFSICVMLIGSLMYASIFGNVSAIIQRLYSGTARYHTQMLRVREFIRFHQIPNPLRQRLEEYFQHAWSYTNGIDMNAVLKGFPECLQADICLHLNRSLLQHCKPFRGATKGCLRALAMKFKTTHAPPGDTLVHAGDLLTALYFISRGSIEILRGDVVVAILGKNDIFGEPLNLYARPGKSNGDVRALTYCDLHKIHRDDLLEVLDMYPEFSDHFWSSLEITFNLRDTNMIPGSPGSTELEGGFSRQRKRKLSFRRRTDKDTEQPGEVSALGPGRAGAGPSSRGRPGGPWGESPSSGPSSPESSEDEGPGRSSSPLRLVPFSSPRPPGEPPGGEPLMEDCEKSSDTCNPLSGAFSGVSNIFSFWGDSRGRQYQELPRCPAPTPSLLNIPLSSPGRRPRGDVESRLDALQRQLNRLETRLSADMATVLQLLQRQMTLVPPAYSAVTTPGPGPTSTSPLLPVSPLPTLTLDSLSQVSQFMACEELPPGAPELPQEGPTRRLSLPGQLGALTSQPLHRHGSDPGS
Text: as §2

[2] = Vero E6/TMPRSS2 cytotoxicity with P-gp inhibitor; format: cell-based; conditions: African green monkey, Vero E6/TMPRSS2 cells, with P-gp inhibitor (name and concentration not stated)
Text: as §1

5-HT transporter (h) [3] = target: T1, 5-HT transporter (h); experiment: In vitro CEREP profiling, 5-HT transporter (h) (antagonist radioligand); format: binding; conditions: test compound concentration 10 uM
Text: as §2

[4] = MDCK-MDR1, papp_a_to_b_mean, In vitro MDR1-MDCKII permeability, mean
[5] = protocol iPSC pneumocytes cytotoxicity
[6] = Severe acute respiratory syndrome coronavirus 2
[7] = MDCK-MDR1, efflux_ratio, In vitro MDR1-MDCKII permeability, no inhibitor
[8] = MDCK-MDR1, papp_a_to_b_mean, In vitro MDR1-MDCKII permeability, no inhibitor
[9] = MDCK-MDR1, papp_b_to_a_mean, In vitro MDR1-MDCKII permeability, no inhibitor

## CC(C)C(Nc1ncnc2[nH]ccc12)c1ccc2c(c1)S(=O)(=O)CCC2 (stereo not shown) [ASAP-0008327]
In vitro
  CC50: > 50 µM
SARS-CoV-2 nsp3-mac1; IC50, nsp3-mac1 activity, Figures 1-3 and text
  IC50: 0.14 µM
MDR1; [4]
  Papp A→B: 3.3 ×10⁻⁶ cm/s
iPSC pneumocytes; [5]
  cc10: > 50.0 µM
  perc_max_measured: 97.729% and 94.012%
  perc_min_measured: 81.556% and 88.355%
SARS-CoV-2; Severe acute respiratory syndrome coronavirus 2, iPSC
  EC50: > 50 µM
SARS-CoV-2; [6]
  EC90: > 50 µM
SARS-CoV-2
  EC50: 29.9 µM
  perc_max_measured: 138.005% and 187.741%

## CC(C)[C@@H](Nc1ncnc2[nH]c(-c3cnn(C)c3C#N)cc12)c1ccc2c(n1)OCCO2 [ASAP-0008418]
HeLa-ACE2 cells; ASAP-0008327-001=ASAP-0008418-001
  CC50: > 50 µM
iPSC pneumocytes; [5]
  perc_max_measured: 95.683%
  perc_min_measured: 63.391%
SARS-CoV-2
  EC50: 12.7 µM
  EC90: 15.6 µM
  perc_max_measured: 116.418%
  perc_min_measured: 5.314%

## CC(C)[C@H](Nc1ncnc2[nH]ccc12)c1ccc2c(c1)S(=O)(=O)CCC2 [ASAP-0008674]
5-HT transporter (h) [1]
  perc_inhibition: % inhibition of the binding of a ligand specific for each target, 5-HT transporter (h) (antagonist radioligand): 0%
5-HT1A (h)
  perc_inhibition (% inhibition of the binding of a ligand specific for each target): 12%
M1 (h)
  perc_inhibition (% inhibition of the binding of a ligand specific for each target): 19%

## CC(C)[C@H](Nc1ncnc2[nH]c(-c3cnn(C)c3C#N)cc12)c1ccc2c(n1)OCCO2 [ASAP-0010715]
5-HT transporter (h) [1]
  perc_inhibition: % inhibition of the binding of a ligand specific for each target, 5-HT transporter (h) (antagonist radioligand): 4%
5-HT1A (h)
  perc_inhibition (% inhibition of the binding of a ligand specific for each target): 43%
M1 (h)
  perc_inhibition (% inhibition of the binding of a ligand specific for each target): 7%

## CC(C)[C@@H](Nc1ncnc2[nH]c(-c3cnn(C)c3C#N)cc12)c1ccc2c(n1)OCCO2 [ASAP-0010716]
5-HT transporter (h) [1]
  perc_inhibition: % inhibition of the binding of a ligand specific for each target, 5-HT transporter (h) (antagonist radioligand): 9%
5-HT1A (h)
  perc_inhibition (% inhibition of the binding of a ligand specific for each target): 22%
M1 (h)
  perc_inhibition (% inhibition of the binding of a ligand specific for each target): 8%

## CNCc1cc(-c2cc3c(N[C@@H](c4ccc5c(c4)S(=O)(=O)CCC5)C(C)C)ncnc3[nH]2)co1 [ASAP-0011176]
5-HT transporter (h) [1]
  perc_inhibition: % inhibition of the binding of a ligand specific for each target, 5-HT transporter (h) (antagonist radioligand): 24%
5-HT1A (h)
  perc_inhibition (% inhibition of the binding of a ligand specific for each target): 6%
iPSC pneumocytes
  CC50: > 50 µM
  cc10: > 50.0 µM
  perc_max_measured: 97.309%
  perc_min_measured: 86.868%
SARS-CoV-2
  EC50: 3.34 µM
  EC90: > 50 µM
  perc_max_measured: 92.989%
  perc_min_measured: 2.106%
M1 (h)
  perc_inhibition (% inhibition of the binding of a ligand specific for each target): 47%

## CC(C)C(Nc1ncnc2[nH]c(C(=O)NC3CCN(C)C3)cc12)c1ccc2c(c1)S(=O)(=O)CCC2 (stereo not shown) [ASAP-0011198]
5-HT transporter (h) [1]
  perc_inhibition: % inhibition of the binding of a ligand specific for each target, 5-HT transporter (h) (antagonist radioligand): 1%
hERG
  inhibition at 10 µM: 7%
5-HT1A (h)
  inhibition at 10 µM: 14%
[2]
  CC50: > 5 µM
In vitro
  CC50 at 24 h: > 20 µM
SARS-CoV-2 nsp3-mac1; HTRF IC50, Figure 6, tool compounds
  IC50: 0.065 µM
MDR1; [7]
  efflux ratio: 1.3
MDR1; [4]
  Papp A→B: 2.94 ×10⁻⁶ cm/s
MDR1; [8]
  Papp A→B: 0.0323 ×10⁻⁶ cm/s
MDR1; [9]
  Papp B→A: 0.0411 ×10⁻⁶ cm/s
MDR1; MDCK-MDR1, with Cyclosporin A, efflux_ratio_inhibitor, MDR1-MDCKII, with inhibitor Cyclosporin A
  efflux ratio: 1.7
MDR1; MDCK-MDR1, with Cyclosporin A, papp_a_to_b_inhibitor_mean, MDR1-MDCKII, with inhibitor Cyclosporin A
  Papp A→B: < 0.01 ×10⁻⁶ cm/s
iPSC pneumocytes
  perc_max_measured: 99.57%
  perc_min_measured: 87.748%
SARS-CoV-2; [6]
  EC50: > 50 µM
  EC90: > 50 µM
SARS-CoV-2
  perc_max_measured: 101.646%
  perc_min_measured: 52.305%
M1 (h)
  inhibition at 10 µM: 17%

## Cn1ncc(-c2cc3c(N[C@@H](c4ccc5c(n4)OCCO5)C(C)(C)C)ncnc3[nH]2)c1C#N [ASAP-0011221]
5-HT transporter (h) [1]
  perc_inhibition: % inhibition of the binding of a ligand specific for each target, 5-HT transporter (h) (antagonist radioligand): 2%
5-HT1A (h)
  perc_inhibition (% inhibition of the binding of a ligand specific for each target): 15%
HeLa-ACE2 cells; ASAP-0008327-001=ASAP-0011221-001, 50.0, 1440 min
  CC50: > 10 µM
M1 (h)
  perc_inhibition (% inhibition of the binding of a ligand specific for each target): 13%

## Cc1nn(C)cc1-c1cc2c(NC(c3ccc4c(c3)S(=O)(=O)CCC4)C(C)C)ncnc2[nH]1 (stereo not shown) [ASAP-0011446]
5-HT transporter (h) [1]
  perc_inhibition: % inhibition of the binding of a ligand specific for each target, 5-HT transporter (h) (antagonist radioligand): -4%
hERG
  inhibition at 10 µM: 3%
5-HT1A (h)
  inhibition at 10 µM: 10%
[2]
  CC50: > 5 µM
In vitro
  CC50 at 24 h: > 20 µM
SARS-CoV-2 nsp3-mac1; HTRF IC50, Figure 4B, bioactive pure enantiomer
  IC50: 0.021 µM
MDR1; [7]
  efflux ratio: 41.1
MDR1; [8]
  Papp A→B: 0.0911 ×10⁻⁶ cm/s
MDR1; [9]
  Papp B→A: 3.7 ×10⁻⁶ cm/s
MDR1; MDCK-MDR1, with Verapamil, efflux_ratio_inhibitor, MDR1-MDCKII, with inhibitor Verapamil
  efflux ratio: 21.8
MDR1; MDCK-MDR1, with Verapamil, papp_a_to_b_inhibitor_mean, MDR1-MDCKII, with inhibitor Verapamil
  Papp A→B: 0.216 ×10⁻⁶ cm/s
MDR1; MDCK-MDR1, with Verapamil, papp_b_to_a_inhibitor_mean, MDR1-MDCKII, with inhibitor Verapamil
  Papp B→A: 4.7 ×10⁻⁶ cm/s
M1 (h)
  inhibition at 10 µM: 11%

## C[C@H](C(=O)O)[C@@H](NC(=O)c1ncnc2[nH]ccc12)c1ccc(Br)cc1 [ASAP-0014722]
5-HT1A (h)
  perc_inhibition (% inhibition of the binding of a ligand specific for each target): 2%
5-HT transporter (h) [3]
  perc_inhibition (% inhibition of the binding of a ligand specific for each target): 0%
M1 (h)
  perc_inhibition (% inhibition of the binding of a ligand specific for each target): -1%

## COc1ccc([C@H](Cc2nnn[nH]2)NC(=O)c2ncnc3[nH]ccc23)cc1 [ASAP-0015381]
5-HT1A (h)
  perc_inhibition (% inhibition of the binding of a ligand specific for each target): 5%
5-HT transporter (h) [3]
  perc_inhibition (% inhibition of the binding of a ligand specific for each target): -1%
M1 (h)
  perc_inhibition (% inhibition of the binding of a ligand specific for each target): -4%
